Assay results taken from ChEMBL document CHEMBL1201862, “PubChem BioAssay data set” (2004).
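Protocol summary: plate cells (96-well), add compound at 5 concentrations, incubate 48 h, interpolate endpoints linearly. Here, GI50 denotes the concentration required for 50% inhibition of growth.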 Active and inactive are the calls of the source. Rule as the data show it: active = GI50 up to about 1.1 µM and inactive = higher.

Key:
Experiment in all cases: inhibition of tumour cell growth, NCI panel, 48 h
[1] = system: 786-0
[2] = system: A498
[3] = system: A549
[4] = system: ACHN
[5] = system: CAKI-1
[6] = system: CCRF-CEM
[7] = system: COLO 205
[8] = system: DLD-1
[9] = system: DMS-114
[10] = system: DMS-273
[11] = system: EKVX
[12] = system: HCC 2998
[13] = system: HCT-116
[14] = system: HCT-15
[15] = system: HL-60
[16] = system: HOP-18
[17] = system: HOP-62
[18] = system: HOP-92
[19] = system: HT-29
[20] = system: IGROV-1
[21] = system: K562
[22] = system: KM-20L2
[23] = system: KM12
[24] = system: LXFL 529
[25] = system: M19-MEL
[26] = system: MOLT-4
[27] = system: NCI-H23
[28] = system: NCI-H460
[29] = system: OVCAR-3
[30] = system: OVCAR-4
[31] = system: OVCAR-8
[32] = system: RPMI-8226
[33] = system: RXF 393
[34] = system: SF-295
[35] = system: SF-539
[36] = system: SK-MEL-28
[37] = system: SK-MEL-2
[38] = system: SK-OV-3
[39] = system: SN12C
[40] = system: SNB-19
[41] = system: SNB-75
[42] = system: SNB-78
[43] = system: SR
[44] = system: SW-620
[45] = system: U-251
[46] = system: UACC-257
[47] = system: UACC-62
[48] = system: UO-31
[49] = system: XF498
[50] = system: LOX IMVI
[51] = system: M14
[52] = system: Malme-3M
[53] = system: NCI-H226
[54] = system: NCI-H522
[55] = system: OVCAR-5
[56] = system: RXF 631
[57] = system: SF-268
[58] = system: SK-MEL-5
[59] = system: TK-10

COC12CCC(=O)C=C1c1ccccc1N2C(C)=O (configuration not stated)
GI50 [1]: > 100 µM (inactive) | GI50 [2]: > 100 µM (inactive) | GI50 [3]: > 100 µM (inactive) | GI50 [4]: > 100 µM (inactive) | GI50 [5]: > 100 µM (inactive) | GI50 [6]: > 100 µM (inactive) | GI50 [7]: > 100 µM (inactive) | GI50 [8]: > 100 µM (inactive) | GI50 [9]: > 100 µM (inactive) | GI50 [10]: > 100 µM (inactive) | GI50 [11]: > 100 µM (inactive) | GI50 [12]: > 100 µM (inactive) | GI50 [13]: > 100 µM (inactive) | GI50 [14]: > 100 µM | GI50 [15]: > 100 µM (inactive) | GI50 [16]: > 100 µM (inactive) | GI50 [17]: > 100 µM (inactive) | GI50 [18]: < 0.01 µM (active) | GI50 [19]: > 100 µM (inactive) | GI50 [20]: > 100 µM (inactive) | GI50 [21]: > 100 µM (inactive) | GI50 [22]: > 100 µM (inactive) | GI50 [23]: > 100 µM (inactive) | GI50 [24]: > 100 µM (inactive) | GI50 [25]: > 100 µM (inactive) | GI50 [26]: > 100 µM (inactive) | GI50 [27]: > 100 µM (inactive) | GI50 [28]: > 100 µM (inactive) | GI50 [29]: > 100 µM (inactive) | GI50 [30]: > 100 µM (inactive) | GI50 [31]: > 100 µM (inactive) | GI50 [32]: > 100 µM (inactive) | GI50 [33]: > 100 µM (inactive) | GI50 [34]: > 100 µM (inactive) | GI50 [35]: > 100 µM (inactive) | GI50 [36]: > 100 µM (inactive) | GI50 [37]: > 100 µM (inactive) | GI50 [38]: > 100 µM (inactive) | GI50 [39]: > 100 µM (inactive) | GI50 [40]: > 100 µM (inactive) | GI50 [41]: > 100 µM (inactive) | GI50 [42]: > 100 µM (inactive) | GI50 [43]: > 100 µM (inactive) | GI50 [44]: > 100 µM (inactive) | GI50 [45]: > 100 µM (inactive) | GI50 [46]: > 100 µM (inactive) | GI50 [47]: > 100 µM (inactive) | GI50 [48]: > 100 µM (inactive) | GI50 [49]: > 100 µM (inactive)

CCOC(=O)C(=O)Nc1cc(Cl)c(Cl)cc1Cl
GI50 [1]: > 100 µM (inactive) | GI50 [4]: > 100 µM (inactive) | GI50 [5]: > 100 µM (inactive) | GI50 [7]: > 100 µM (inactive) | GI50 [9]: > 100 µM (inactive) | GI50 [10]: > 100 µM (inactive) | GI50 [11]: > 100 µM (inactive) | GI50 [12]: > 100 µM (inactive) | GI50 [13]: > 100 µM (inactive) | GI50 [14]: > 100 µM | GI50 [17]: > 100 µM (inactive) | GI50 [18]: > 100 µM (inactive) | GI50 [19]: > 100 µM (inactive) | GI50 [20]: > 100 µM (inactive) | GI50 [21]: > 100 µM (inactive) | GI50 [22]: > 100 µM (inactive) | GI50 [23]: > 100 µM (inactive) | GI50 [50]: > 100 µM (inactive) | GI50 [24]: > 100 µM (inactive) | GI50 [51]: > 100 µM (inactive) | GI50 [25]: > 100 µM (inactive) | GI50 [26]: > 100 µM (inactive) | GI50 [52]: > 100 µM (inactive) | GI50 [53]: > 100 µM (inactive) | GI50 [27]: > 100 µM (inactive) | GI50 [28]: > 100 µM (inactive) | GI50 [54]: > 100 µM (inactive) | GI50 [29]: > 100 µM (inactive) | GI50 [30]: > 100 µM (inactive) | GI50 [55]: > 100 µM (inactive) | GI50 [31]: > 100 µM (inactive) | GI50 [32]: > 100 µM (inactive) | GI50 [33]: > 100 µM (inactive) | GI50 [56]: > 100 µM (inactive) | GI50 [57]: > 100 µM (inactive) | GI50 [34]: > 100 µM (inactive) | GI50 [35]: > 100 µM (inactive) | GI50 [36]: > 100 µM (inactive) | GI50 [37]: > 100 µM (inactive) | GI50 [58]: > 100 µM (inactive) | GI50 [38]: > 100 µM (inactive) | GI50 [39]: > 100 µM (inactive) | GI50 [40]: > 100 µM (inactive) | GI50 [41]: > 100 µM (inactive) | GI50 [42]: > 100 µM (inactive) | GI50 [44]: > 100 µM (inactive) | GI50 [59]: > 100 µM (inactive) | GI50 [45]: > 100 µM (inactive) | GI50 [46]: > 100 µM (inactive) | GI50 [47]: > 100 µM (inactive) | GI50 [48]: > 100 µM (inactive)

CC(=O)C1C(=O)C(=O)N(c2ccccc2N2C(=O)C(=O)C(C(C)=O)C2=O)C1=O (configuration not stated)
GI50 [1]: > 100 µM (inactive) | GI50 [2]: > 100 µM (inactive) | GI50 [3]: > 100 µM (inactive) | GI50 [4]: > 100 µM (inactive) | GI50 [5]: > 100 µM (inactive) | GI50 [6]: > 100 µM (inactive) | GI50 [7]: > 100 µM (inactive) | GI50 [8]: > 100 µM (inactive) | GI50 [9]: > 100 µM (inactive) | GI50 [11]: 39.9 µM (inactive) | GI50 [12]: > 100 µM (inactive) | GI50 [13]: > 100 µM (inactive) | GI50 [14]: > 100 µM | GI50 [15]: > 100 µM (inactive) | GI50 [16]: > 100 µM (inactive) | GI50 [17]: > 100 µM (inactive) | GI50 [18]: > 100 µM (inactive) | GI50 [19]: > 100 µM (inactive) | GI50 [20]: > 100 µM (inactive) | GI50 [21]: > 100 µM (inactive) | GI50 [22]: > 100 µM (inactive) | GI50 [23]: > 100 µM (inactive) | GI50 [50]: > 100 µM (inactive) | GI50 [24]: > 100 µM (inactive) | GI50 [51]: > 100 µM (inactive) | GI50 [25]: > 100 µM (inactive) | GI50 [26]: > 100 µM (inactive) | GI50 [52]: > 100 µM (inactive) | GI50 [53]: > 100 µM (inactive) | GI50 [27]: > 100 µM (inactive) | GI50 [28]: > 100 µM (inactive) | GI50 [54]: > 100 µM (inactive) | GI50 [29]: > 100 µM (inactive) | GI50 [30]: > 100 µM (inactive) | GI50 [55]: > 100 µM (inactive) | GI50 [31]: > 100 µM (inactive) | GI50 [32]: > 100 µM (inactive) | GI50 [33]: > 100 µM (inactive) | GI50 [56]: > 100 µM (inactive) | GI50 [57]: > 100 µM (inactive) | GI50 [34]: > 100 µM (inactive) | GI50 [35]: > 100 µM (inactive) | GI50 [36]: > 100 µM (inactive) | GI50 [37]: > 100 µM (inactive) | GI50 [58]: > 100 µM (inactive) | GI50 [38]: > 100 µM (inactive) | GI50 [39]: > 100 µM (inactive) | GI50 [40]: > 100 µM (inactive) | GI50 [41]: > 100 µM (inactive) | GI50 [42]: > 100 µM (inactive) | GI50 [43]: > 100 µM (inactive) | GI50 [44]: > 100 µM (inactive) | GI50 [59]: > 100 µM (inactive) | GI50 [45]: > 100 µM (inactive) | GI50 [46]: > 100 µM (inactive) | GI50 [47]: > 100 µM (inactive) | GI50 [48]: > 100 µM (inactive)
